# Results published in patent US8822530B2, “Sulfur derivatives as chemokine receptor modulators” (Allergan, Inc., priority 2010, dated 2014).
# Molecular target: T1, CCR2 receptor (Homo sapiens, UniProt P41597)
# T1 construct: expressed in transfected cells
# Experiment: Calcium activity assay on FLIPR Tetra in HEK-Gqi5 cells stably expressing CCR2
# Format: cell-based
# Experimental: HEK-Gqi5 cells stably expressing CCR2 were cultured in DMEM high glucose, 10% FBS, 1% PSA, 400 μg/ml geneticin and 50 μg/ml hygromycin. Appropriate positive control chemokines (MCP-1, MIP1A or RANTES) was used as the positive control agonist for screening compound-induced calcium activity assayed on the FLIPR^Tetra. The drug plates were prepared in 384-well microplates using the EP3 and the MultiPROBE robotic liquid handling systems. Compounds were synthesized and tested for CCR2 activity.
# T1 sequence (P41597 whole entry): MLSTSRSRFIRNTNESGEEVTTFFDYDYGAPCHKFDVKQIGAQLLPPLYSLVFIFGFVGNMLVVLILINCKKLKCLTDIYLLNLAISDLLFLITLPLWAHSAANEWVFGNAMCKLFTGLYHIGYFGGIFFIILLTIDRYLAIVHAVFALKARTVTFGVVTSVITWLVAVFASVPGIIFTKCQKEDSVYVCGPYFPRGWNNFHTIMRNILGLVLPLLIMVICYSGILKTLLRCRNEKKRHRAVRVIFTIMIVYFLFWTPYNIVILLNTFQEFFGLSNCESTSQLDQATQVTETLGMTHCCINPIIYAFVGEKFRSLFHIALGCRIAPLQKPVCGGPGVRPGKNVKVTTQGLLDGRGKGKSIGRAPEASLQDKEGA
Structure (SMILES),CCR2 % ANTAGONISM [%],IC50 [nM]
O=C(O)c1ccc(C[S+]([O-])c2ccc(Cl)cc2NS(=O)(=O)c2ccc(Cl)c(C(F)(F)F)c2)cc1 (stereo not drawn) [4-({[4-chloro-2-({[4-chloro-3-(trifluoromethyl)phenyl]sulfonyl}amino)phenyl]sulfinyl}methyl)benzoic acid],23,2100
O=C(CCSc1ccc(Cl)cc1NS(=O)(=O)c1ccc(Cl)c(C(F)(F)F)c1)N1CCCC1 [4-chloro-N-(5-chloro-2-{[3-oxo-3-(pyrrolidin-1-yl)propyl]sulfanyl}phenyl)-3-(trifluoromethyl)benzenesulfonamide],60,2290
O=C(CC[S+]([O-])c1ccc(Cl)cc1NS(=O)(=O)c1ccc(Cl)c(C(F)(F)F)c1)N1CCCC1 (stereo not drawn) [4-chloro-N-(5-chloro-2-{[3-oxo-3-(pyrrolidin-1-yl)propyl]sulfinyl}phenyl)-3-(trifluoromethyl)benzenesulfonamide],72,1660
O=C(CCS(=O)(=O)c1ccc(Cl)cc1NS(=O)(=O)c1ccc(Cl)c(C(F)(F)F)c1)N1CCCC1 [4-chloro-N-(5-chloro-2-{[3-oxo-3-(pyrrolidin-1-yl)propyl]sulfonyl}phenyl)-3-(trifluoromethyl)benzenesulfonamide],58,–
O=C(O)CSc1ccc(Cl)cc1NS(=O)(=O)c1cc2ccccc2o1 [({2-[(1-benzofuran-2-ylsulfonyl)amino]-4-chlorophenyl}sulfanyl)acetic acid],95,484
O=C(O)CNC(=O)c1ccc(CSc2ccc(Cl)cc2NS(=O)(=O)c2ccc(Cl)c(C(F)(F)F)c2)cc1 [({[4-({[4-chloro-2-({[4-chloro-3-(trifluoromethyl)phenyl]sulfonyl}amino)phenyl]sulfanyl}methyl)phenyl]carbonyl}amino)acetic acid],75,–
O=C(O)CNC(=O)c1ccc(C[S+]([O-])c2ccc(Cl)cc2NS(=O)(=O)c2ccc(Cl)c(C(F)(F)F)c2)cc1 (stereo not drawn) [({[4-({[4-chloro-2-({[4-chloro-3-(trifluoromethyl)phenyl]sulfonyl}amino)phenyl]sulfinyl}methyl)phenyl]carbonyl}amino)acetic acid],24,–
CC(=O)Nc1cccc(CSc2ccc(Cl)cc2N(C(C)=O)S(=O)(=O)c2cc3ccccc3o2)c1 [N-(2-{[3-(acetylamino)benzyl]sulfanyl}-5-chlorophenyl)-N-(1-benzofuran-2-ylsulfonyl)acetamide],73,1610
N#Cc1ccc(NS(=O)(=O)c2cc3ccccc3o2)c(SCc2ccccc2)c1 [N-[2-(benzylsulfanyl)-4-cyanophenyl]-1-benzofuran-2-sulfonamide],79,604
O=S(=O)(Nc1cc(Cl)ccc1SCc1ccccc1)c1ccc(Cl)c(C(F)(F)F)c1 [N-[2-(benzylsulfanyl)-5-chlorophenyl]-4-chloro-3-(trifluoromethyl)benzenesulfonamide],68,1280
N#Cc1ccc(NS(=O)(=O)c2cc3ccccc3o2)c([S+]([O-])Cc2ccccc2)c1 (stereo not drawn) [N-[2-(benzylsulfinyl)-4-cyanophenyl]-1-benzofuran-2-sulfonamide],94,1030
O=S(=O)(Nc1cc(Cl)ccc1[S+]([O-])Cc1ccccc1)c1ccc(Cl)c(C(F)(F)F)c1 (stereo not drawn) [N-[2-(benzylsulfinyl)-5-chlorophenyl]-4-chloro-3-(trifluoromethyl)benzenesulfonamide],77,493
N#Cc1ccc(NS(=O)(=O)c2cc3ccccc3o2)c(S(=O)(=O)Cc2ccccc2)c1 [N-[2-(benzylsulfonyl)-4-cyanophenyl]-1-benzofuran-2-sulfonamide],96,888
O=S(=O)(Cc1ccccc1)c1ccc(Cl)cc1NS(=O)(=O)c1ccc(Cl)c(C(F)(F)F)c1 [N-[2-(benzylsulfonyl)-5-chlorophenyl]-4-chloro-3-(trifluoromethyl)benzenesulfonamide],71,538
CS(=O)(=O)Nc1cccc(CSc2ccc(Cl)cc2NS(=O)(=O)c2cc3ccccc3o2)c1 [N-[5-chloro-2-({3-[(methylsulfonyl)amino]benzyl}sulfanyl)phenyl]-1-benzofuran-2-sulfonamide],90,1280
CS(=O)(=O)Nc1cccc(C[S+]([O-])c2ccc(Cl)cc2NS(=O)(=O)c2cc3ccccc3o2)c1 (stereo not drawn) [N-[5-chloro-2-({3-[(methylsulfonyl)amino]benzyl}sulfinyl)phenyl]-1-benzofuran-2-sulfonamide],77,2420
CS(=O)(=O)Nc1cccc(CS(=O)(=O)c2ccc(Cl)cc2NS(=O)(=O)c2cc3ccccc3o2)c1 [N-[5-chloro-2-({3-[(methylsulfonyl)amino]benzyl}sulfonyl)phenyl]-1-benzofuran-2-sulfonamide],91,6570

Structure (SMILES),CCR2 % ANTAGONISM [%],IC50 [nM]
"O=C1CCc2cc(NS(=O)(=O)c3cc4ccccc4o3)c([S+]([O-])Cc3ccccc3)cc21 (stereo not drawn) [N-[6-(benzylsulfinyl)-1-oxo-2,3-dihydro-1H-inden-5-yl]-1-benzofuran-2-sulfonamide]",73,–
"O=C1CCc2cc(NS(=O)(=O)c3cc4ccccc4o3)c(S(=O)(=O)Cc3ccccc3)cc21 [N-[6-(benzylsulfonyl)-1-oxo-2,3-dihydro-1H-inden-5-yl]-1-benzofuran-2-sulfonamide]",45,2240
CC(=O)Nc1cccc(CSc2ccc(Cl)cc2NS(=O)(=O)c2cc3ccccc3o2)c1 [N-{3-[({2-[(1-benzofuran-2-ylsulfonyl)amino]-4-chlorophenyl}sulfanyl)methyl]phenyl}acetamide],96,379
CC(=O)Nc1cccc(C[S+]([O-])c2ccc(Cl)cc2NS(=O)(=O)c2cc3ccccc3o2)c1 (stereo not drawn) [N-{3-[({2-[(1-benzofuran-2-ylsulfonyl)amino]-4-chlorophenyl}sulfinyl)methyl]phenyl}acetamide],95,–
CC(=O)Nc1cccc(CS(=O)(=O)c2ccc(Cl)cc2NS(=O)(=O)c2cc3ccccc3o2)c1 [N-{3-[({2-[(1-benzofuran-2-ylsulfonyl)amino]-4-chlorophenyl}sulfonyl)methyl]phenyl}acetamide],100,854
COC(=O)c1ccccc1CSc1ccc(Cl)cc1NS(=O)(=O)c1ccc(Cl)c(C(F)(F)F)c1 [methyl 2-({[4-chloro-2-({[4-chloro-3-(trifluoromethyl)phenyl]sulfonyl}amino)phenyl]sulfanyl}methyl)benzoate],88,2380
COC(=O)c1ccccc1C[S+]([O-])c1ccc(Cl)cc1NS(=O)(=O)c1ccc(Cl)c(C(F)(F)F)c1 (stereo not drawn) [methyl 2-({[4-chloro-2-({[4-chloro-3-(trifluoromethyl)phenyl]sulfonyl}amino)phenyl]sulfinyl}methyl)benzoate],101,274
COC(=O)c1ccccc1CS(=O)(=O)c1ccc(Cl)cc1NS(=O)(=O)c1ccc(Cl)c(C(F)(F)F)c1 [methyl 2-({[4-chloro-2-({[4-chloro-3-(trifluoromethyl)phenyl]sulfonyl}amino)phenyl]sulfonyl}methyl)benzoate],82,515
COC(=O)c1ccccc1CSc1ccc(F)cc1NS(=O)(=O)c1cc2ccccc2o1 [methyl 2-[({2-[(1-benzofuran-2-ylsulfonyl)amino]-4-fluorophenyl}sulfanyl)methyl]benzoate],93,272
COC(=O)c1ccccc1C[S+]([O-])c1ccc(F)cc1NS(=O)(=O)c1cc2ccccc2o1 (stereo not drawn) [methyl 2-[({2-[(1-benzofuran-2-ylsulfonyl)amino]-4-fluorophenyl}sulfinyl)methyl]benzoate],91,140
COC(=O)c1ccccc1CS(=O)(=O)c1ccc(F)cc1NS(=O)(=O)c1cc2ccccc2o1 [methyl 2-[({2-[(1-benzofuran-2-ylsulfonyl)amino]-4-fluorophenyl}sulfonyl)methyl]benzoate],90,41
COC(=O)CCSc1ccc(Cl)cc1NS(=O)(=O)c1cc2ccccc2o1 [methyl 3-({2-[(1-benzofuran-2-ylsulfonyl)amino]-4-chlorophenyl}sulfanyl)propanoate],91,864
COC(=O)CC[S+]([O-])c1ccc(Cl)cc1NS(=O)(=O)c1cc2ccccc2o1 (stereo not drawn) [methyl 3-({2-[(1-benzofuran-2-ylsulfonyl)amino]-4-chlorophenyl}sulfinyl)propanoate],99,217
COC(=O)CCS(=O)(=O)c1ccc(Cl)cc1NS(=O)(=O)c1cc2ccccc2o1 [methyl 3-({2-[(1-benzofuran-2-ylsulfonyl)amino]-4-chlorophenyl}sulfonyl)propanoate],96,225
COC(=O)c1cccc(CSc2ccc(Cl)cc2NS(=O)(=O)c2ccc(Cl)c(C(F)(F)F)c2)c1 [methyl 3-({[4-chloro-2-({[4-chloro-3-(trifluoromethyl)phenyl]sulfonyl}amino)phenyl]sulfanyl}methyl)benzoate],57,1360
COC(=O)c1cccc(C[S+]([O-])c2ccc(Cl)cc2NS(=O)(=O)c2ccc(Cl)c(C(F)(F)F)c2)c1 (stereo not drawn) [methyl 3-({[4-chloro-2-({[4-chloro-3-(trifluoromethyl)phenyl]sulfonyl}amino)phenyl]sulfinyl}methyl)benzoate],93,3110
COC(=O)c1cccc(CS(=O)(=O)c2ccc(Cl)cc2NS(=O)(=O)c2ccc(Cl)c(C(F)(F)F)c2)c1 [methyl 3-({[4-chloro-2-({[4-chloro-3-(trifluoromethyl)phenyl]sulfonyl}amino)phenyl]sulfonyl}methyl)benzoate],55,2970
